Measured values reported in US20050267182A1, “Urea derivatives as FLT-3 modulators” (Ambit Biosciences Corporation, priority 2003, published 2005).

Key:
FLT3 = target: T1, FLT3 (Homo sapiens, UniProt P36888); assay: Binding constant (Kd) measurement, phage-displayed kinase competition binding assay; settings: for Binding Assay: FLT3(JMminus): FLT3(JMminus) construct
T1 construct: FLT3(DKIN); made in house
T1 sequence (P36888 610-943 limits assumed): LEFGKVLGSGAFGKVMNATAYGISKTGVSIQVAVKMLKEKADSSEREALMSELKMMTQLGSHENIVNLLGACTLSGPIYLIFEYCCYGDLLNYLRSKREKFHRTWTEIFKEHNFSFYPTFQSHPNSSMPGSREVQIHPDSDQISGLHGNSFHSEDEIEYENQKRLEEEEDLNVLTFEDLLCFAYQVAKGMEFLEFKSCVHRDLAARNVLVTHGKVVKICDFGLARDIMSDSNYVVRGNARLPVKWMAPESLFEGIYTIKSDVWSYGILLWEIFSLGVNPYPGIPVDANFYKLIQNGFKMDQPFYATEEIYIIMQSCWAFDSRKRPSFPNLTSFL
From the text: Binding Constant (Kd) Measurements for Small-Molecule-Kinase Interactions
The term “ND” represents non-determined values.

MV4,11 cells = assay: FLT3 assay using MV4,11 cells (cellular proliferation, MTS); type: cell-based, human; settings: cell assay code CS0001; for IC50: Homo sapiens, MV4-11
Method: The ability of FLT3 kinase inhibitors to inhibit cellular proliferation was also examined. MV4:11 was a cell line derived from a patient with acute myelogenous leukemia.
FLT3 Assay Using MV4,11 Cells
MV4,11 cells were grown in an incubator @ 37° C. in 5% CO2 in Medium 2 (RPMI, 10% FBS, 4 mM glutamine, Penn/Strep). The cells were counted daily and the cell density was kept between 1e5 and 8e5 cells/ml.
Day One: Enough cells were harvested for experiments to be conducted in 50 ml conical tubes. The harvested cells were spun at 500 g for 5 min at 4° C., the supernatant was then aspirated and the cells were resuspended in the starting volume of 1×PBS. The cells were again spun at 500 g for 5 min at 4° C. and the supernatant again aspirated. The cells were then resuspended in medium 3 (DMEM w/ glut, 10% FBS, Penn/Strep) to a density of 4e5 cells/ml and incubated (37° C. in 5% CO2 O/N.
Day Two: The cells were counted and enough medium 3 was added to decrease density to 2e5 cells/ml. 50 ul (10,000 cells) was aliquoted into each well of a 96 well optical plate using multichannel pipetman. The compound plate was then set up by aliquoting 3 μl of negative control (DMSO) into column 1 of a 96 well 300 ul polypropylene plate, aliquoting 3 μt of positive control (10 mM AB20121) into column 12 of plate, and aliquoting 3 μl of appropriate compounds from serial dilutions into columns 2-11. To each well, 150 μl of Medium 3 was added and 50 μl of compound/medium mixture from compound plate into rows of optical plate in duplicate. The cells were then incubated @ 37° C. in 5% CO2 for 3 days.
Day Five: MTS was thawed in a H2O bath. 20 μl of MTS was added to each well of optical plate and the cells were incubated (37° C. in 5% CO2 for 2 hours. The plate was then placed on a plate shaker for 30 seconds on high speed.

CS0002 = assay: Cell Assay: CS0002; type: cell-based; settings: cell assay code CS0002

Binding Assay: FLT3(DKIN) (FLT3; FLT3(DKIN) construct) | Cell Assay: CS0001:IC50 (MV4,11 cells) | SMILES | also measured
 | + + + + | CC(C)(C)c1cc(NC(=O)Nc2ccc(Nc3cc(N)nc(N)n3)cc2)no1 [Compound O7] | Binding Assay: FLT3(JMminus) (FLT3): + + + +; IC50 (CS0002): > 10 µM
+ + + + | + + + + | CC(C)(C)c1cc(NC(=O)Nc2ccc(OCc3ccccc3)cc2)on1 [Compound G30] | Cell Assay: CS0002:IC50 (CS0002): + +
 | + + + + | CC(C)(C)c1cc(NC(=O)Nc2ccc(N3C(=O)c4ccccc4C3=O)cc2)no1 [Compound A57] | Binding Assay: FLT3(JMminus) (FLT3): + + +; IC50 (CS0002): > 10 µM
+ + + + | + + + | CCc1ccc(C(=O)Nc2ccc(NC(=O)Nc3cc(C(C)(C)C)on3)cc2)cc1 [Compound N32] | IC50 (CS0002): > 10 µM
+ + + + |  | CC(C)(C)c1cc(NC(=O)Nc2ccc(NC(=O)c3cc([N+](=O)[O-])ccn3)cc2)no1 [Compound N7] | IC50 (CS0002): > 10 µM
+ + + | + + + | CC(=O)c1ccc(NC(=O)Nc2cc(C(C)(C)C)on2)cc1 [Compound A20] | 
+ + + + | + + + | COC(=O)c1cccc(COc2ccc(NC(=O)Nc3cc(C(C)(C)C)on3)cc2)c1 [Compound G7] | 
+ + + + | + + + | CC(C)(C)c1cc(NC(=O)Nc2ccc(OCc3ccc(C(=O)c4ccccc4)cc3)cc2)no1 [Compound G9] | 
+ + + | + + | CC(C)(C)c1cc(NC(=O)Nc2ccc(NC(=O)c3cccc(Br)c3)cc2)no1 [Compound N24] | 
+ + + + | + + + | CC(C)(C)c1cc(NC(=O)Nc2ccc(OCCc3ccccn3)cc2)no1 [Compound G27] | 
+ + + + | + + + | Cc1nccn1CCOc1ccc(NC(=O)Nc2cc(C(C)(C)C)on2)cc1 [Compound G51] | 
+ + + + | + + + + | Cc1ccc(NC(=O)c2ccc(NC(=O)Nc3cc(C(C)(C)C)on3)cc2)cc1 [Compound N84] | 
+ + + + | + + + | CC(C)(C)c1cc(NC(=O)Nc2ccc(C(=O)Nc3ccc(Cl)cc3)cc2)no1 [Compound N156] | 
+ + + + | + + + | Cc1nc(N)cc(Nc2ccc(NC(=O)Nc3cc(C(C)(C)C)on3)cc2)n1 [Compound O10] | 
+ + + | + + | Cc1cc(C)c(C(=O)Nc2ccc(NC(=O)Nc3cc(C(C)(C)C)on3)cc2)c(C)c1 [Compound N31] | 
+ + + + | + + + | CC(C)(C)c1cc(NC(=O)Nc2ccc(C(=O)Nc3ccccc3)cc2)no1 [Compound N90] | 
+ + | + + | CC(C)(C)c1cc(NC(=O)Nc2ccc(NC(=O)c3ccc(OC(F)(F)F)cc3)cc2)no1 [Compound N30] | 
+ + + + | + + + | CC(=O)c1c[nH]c(C(=O)Nc2ccc(NC(=O)Nc3cc(C(C)(C)C)on3)cc2)c1 [Compound N43] | 
+ + + + | + + + + | Cc1cccnc1-c1noc(-c2ccc(NC(=O)Nc3cc(C(C)(C)C)on3)cc2)n1 [Compound P4] | 
+ + + + | + + + + | CC(C)(C)c1cc(NC(=O)Nc2ccc(NC(=O)c3nccc4ccccc34)cc2)no1 [Compound N117] | 

Second part, the molecule before the results:

SMILES | Binding Assay: FLT3(DKIN) (FLT3; FLT3(DKIN) construct) | Cell Assay: CS0001:IC50 (MV4,11 cells) | also measured
CC(C)c1cc(NC(=O)Nc2ccc(NC(=O)C3CCN(c4ncc(C(F)(F)F)cc4Cl)CC3)cc2)no1 [Compound N59] | + + + | + + + + | IC50 (CS0002): > 10 µM
CC(C)(C)c1cc(NC(=O)Nc2ccc(NC(=O)c3ccc(Oc4ccnc(C(=O)O)c4)cc3)cc2)no1 [Compound N166] |  | + + + | Binding Assay: FLT3(JMminus) (FLT3): + + + +; Cell Assay: CS0002:IC50 (CS0002): + +
CC(C)c1sc(Cl)nc1C(=O)Nc1ccc(NC(=O)Nc2cc(C(C)(C)C)on2)cc1 [Compound N75] |  |  | Binding Assay: FLT3(JMminus) (FLT3): + + + +; IC50 (MV4,11 cells): > 10 µM; Cell Assay: CS0002:IC50 (CS0002): + +
CC(C)(C)c1cc(NC(=O)Nc2ccc(NC(=O)c3cccc4nc5cc(O)cc(O)c5cc34)cc2)no1 [Compound N139] | + + + | + + + | 
CC(C)(C)c1cc(NC(=O)Nc2ccc(NC(=O)c3nnsc3Sc3ccc(Cl)cc3)cc2)no1 [Compound N71] |  | + + | Binding Assay: FLT3(JMminus) (FLT3): + + +
O=C(c1cc2ccccc2[nH]1)c1cc2cc(O)ccc2[nH]1 | + + + + | + + + | 
CC(C)Oc1ccc(NC(=O)Nc2cc(C(C)(C)C)no2)cc1 [Compound G33] | + + + + | + + + | 
CC(=O)c1c(NC(=O)Nc2ccc(Cl)c(Cl)c2)sc2c1CCCC2 [Compound Z56] |  | + + + | Kd (FLT3; FLT3(DKIN) construct): > 10 µM
CC(C)(C)c1cc(NC(=O)Nc2ccc(NC(=O)c3cc(Cl)nnc3Cl)cc2)no1 [Compound N174] | + + + + | + + and + + + | Binding Assay: FLT3(JMminus) (FLT3): + + +
COc1cc(OC)nc(C2CCCCC2C(=O)Nc2ccc(NC(=O)Nc3cc(C(C)(C)C)on3)cc2)n1 (stereo not drawn) [Compound N129] |  | + + + | Binding Assay: FLT3(JMminus) (FLT3): + + +
CC(C)(C)c1cc(NC(=O)Nc2ccc(NC(=O)c3cc(O)c4cccc(O)c4n3)cc2)no1 [Compound N176] |  |  | Binding Assay: FLT3(JMminus) (FLT3): + + +; IC50 (MV4,11 cells): > 10 µM
CC(C)(C)c1cc(NC(=O)Nc2ccc(NC(=O)c3cc(Cl)cc(Cl)c3)cc2)no1 [Compound N29] | + + + | + + + | 
CC(C)(C)c1cc(NC(=O)Nc2ccc(NC(=O)c3c[nH]c(=O)nc3-c3ccncc3)cc2)no1 [Compound N19] | + + | + + | 
Cc1nc(C(=O)Nc2ccc(NC(=O)Nc3cc(C(C)(C)C)on3)cc2)c(C(F)(F)F)o1 [Compound N55] | + + + + | + + + | 
CC(C)(C)c1cc(NC(=O)Nc2ccc(NC(=O)c3cnc4cc(C(F)(F)F)ccc4c3O)cc2)no1 [Compound N146] | + + + | + + + | 
CC(C)(C)c1cc(NC(=O)Nc2ccc(NC(=O)c3cnc4ccccc4n3)cc2)no1 [Compound N149] | + + + | + + | 
COc1cc(OC)nc(Oc2ccccc2C(=O)Nc2ccc(NC(=O)Nc3cc(C(C)(C)C)on3)cc2)n1 [Compound N70] |  | + + | Binding Assay: FLT3(JMminus) (FLT3): + + +
Cn1nc(-c2ccccc2)c(C(=O)Nc2ccc(NC(=O)Nc3cc(C(C)(C)C)on3)cc2)c1Cl [Compound N11] | + + | + + | 
CC(C)(C)c1cc(NC(=O)Nc2ccc(NC(=O)Cc3noc4ccccc34)cc2)no1 [Compound N80] |  | + + + | Binding Assay: FLT3(JMminus) (FLT3): + + +
Cc1ncccc1C(=O)Nc1ccc(NC(=O)Nc2cc(C(C)(C)C)on2)cc1 [Compound N145] | + + + + | + + + | 
CC(C)(C)c1cc(NC(=O)Nc2ccc(NC(=O)c3cc4cccnc4nc3C(F)(F)F)cc2)no1 [Compound N61] | + + + | + + + | 
COc1ccc(NC(=O)Nc2cc(C(C)(C)C)on2)cc1OC [Compound A55] |  |  | Binding Assay: FLT3(JMminus) (FLT3): + +; IC50 (MV4,11 cells): > 10 µM
CC(C)(C)c1cc(NC(=O)Nc2ccc(NC(=O)c3ccc4cccnc4n3)cc2)no1 [Compound N144] | + + + + | + + + | 
Cc1cc(NC(=O)c2cn3nc(Cl)ccc3n2)ccc1NC(=O)Nc1cc(C(C)(C)C)on1 [Compound N169] |  | + + + | Binding Assay: FLT3(JMminus) (FLT3): + + +
